The text below walks through data of patent US5856341A, “Benzo [B] indeno [2,1-D] thiophene compounds, intermediates, processes, compositions and methods” (Eli Lilly and Company, priority 1997, dated 1999).

One experiment deals with femur. The experiment in a line: Osteoporosis Test Procedure: bone protection in ovariectomized rats, 35 days oral. Format: in vivo. Here is the method: Following the General Preparation Procedure, infra, the rats are treated daily for 35 days (6 rats per treatment group) and sacrificed by carbon dioxide asphyxiation on the 36th day. The 35 day time period is sufficient to allow maximal reduction in bone density, measured as described herein. At the time of sacrifice, the uteri are removed, dissected free of extraneous tissue, and the fluid contents are expelled before determination of wet weight in order to confirm estrogen deficiency associated with complete ovariectomy. […] The uteri are then placed in 10% neutral buffered formalin to allow for subsequent histological analysis. The right femurs are excised and digitilized x-rays generated and analyzed by an image analysis program (NIH image) at the distal metaphysis. The proximal aspect of the tibiae from these animals are also scanned by quantitative computed tomography. In accordance with the above procedures, compounds of the instant invention and ethynyl estradiol (EE2) in 20% hydroxypropyl β-cyclodextrin are orally administered to test animals. Distal femur metaphysis and proximal tibiae data are the results of formula I compound treatments compared to intact and ovariectomized test animals. Results are reported as percent protection relative to ovariectomy in Table 2 below.

In another experiment the test system is uterus. Briefly: Uterine weight in ovariectomized rats, 4 days daily oral dosing (postmenopausal model). Particulars: for Uterine Weight % Increase verses ovariectomized controls: daily for 4 days, OVX rats. It counts as in vivo, Sprague Dawley rats. On the procedure:
(§1) In the examples illustrating the methods, a postmenopausal model was used in which effects of different treatments upon circulating lipids were determined.
(§2) Seventy-five day old female Sprague Dawley rats (weight range of 200 to 225 g) were obtained from Charles River Laboratories (Portage, Mich.). The animals were either bilaterally ovariectomized (OVX) or exposed to a Sham surgical procedure at Charles River Laboratories, and then shipped after one week. Upon arrival, they were housed in metal hanging cages in groups of 3 or 4 per cage and had ad libitum access to food (calcium content approximately 0.5%) and water for one week. Room temperature was maintained at 22.2°±1.7° C. with a minimum relative humidity of 40%. The photoperiod in the room was 12 hours light and 12 hours dark.
(§3) Dosing Regimen Tissue Collection. After a one week acclimation period (therefore, two weeks post-OVX) daily dosing with test compound was initiated. 17α-ethynyl estradiol or the test compound were given orally, unless otherwise stated, as a suspension in 1% carboxymethylcellulose or dissolved in 20% cyclodextrin. Animals were dosed daily for 4 days. Following the dosing regimen, animals were weighed and anesthetized with a ketamine: xylazine (2:1, V:V) mixture and a blood sample was collected by cardiac puncture. The animals were then sacrificed by asphyxiation with CO2, the uterus was removed through a midline incision, and a wet uterine weight was determined.
(§4) Source of Compound: 17α-ethynyl estradiol was obtained from Sigma Chemical Co., St. Louis, Mo.
(§5) Data presented in Table 1 below show comparative results among ovariectomized rats, rats treated with 17α-ethynyl estradiol (EE2; an orally available form of estrogen), and rats treated with certain compounds of the instant invention. […] This uterine response to estrogen is well recognized in the art.
(§6) The data presented in Table 1 below reflects the response of 5 to 6 rats per treatment.

For the next experiment, the system named is serum cholesterol. The experiment in a line: Serum cholesterol in ovariectomized rats (Cholesterol Analysis). It counts as in vivo, Sprague Dawley rats. Particulars: for Serum Cholest. % Decrease verses ovariectomized controls: daily for 4 days, OVX rats. On the procedure: as §1, §2, §3
Cholesterol Analysis. Blood samples were allowed to clot at room temperature for 2 hours, and serum was obtained following centrifugation for 10 minutes at 3000 rpm. Serum cholesterol was determined using a Boehringer Mannheim Diagnostics high performance cholesterol assay. Briefly the cholesterol was oxidized to cholest-4-en-3-one and hydrogen peroxide. The hydrogen peroxide was then reacted with phenol and 4-aminophenazone in the presence of peroxidase to produce a p-quinone imine dye, which was read spectrophotemetrically at 500 nm. Cholesterol concentration was then calculated against a standard curve.
as §4, §5, §6

Another experiment relates to Eosinophil peroxidase. The experiment in a line: Uterine Eosinophil Peroxidase (EPO) Assay in ovariectomized rats. It counts as in vivo, Sprague Dawley rats. Particulars: for Uterine Eosinophil peroxidase, Vmax: daily for 4 days, OVX rats. Here is the method: as §1, §2, §3
Uterine Eosinophil Peroxidase (EPO) Assay. Uteri were kept at 4° C. until time of enzymatic analysis. The uteri were then homogenized in 50 volumes of 50 mM Tris buffer (pH-8.0) containing 0.005% Triton X-100. Upon addition of 0.01% hydrogen peroxide and 10 mM O-phenylenediamine (final concentrations) in Tris buffer, increase in absorbance was monitored for one minute at 450 nm. The presence of eosonophils in the uterus is an indication of estrogenic activity of a compound. The maximal velocity of a 15 second interval was determined over the initial, linear portion of the reaction curve.
as §4
As is expressed in the data below, estrogenicity also was assessed by evaluating the adverse response of eosinophil infiltration into the uterus.
as §6

Experiment [1] relates to MCF-7 breast adenocarcinoma cells. The experiment in a line: MCF-7 Proliferation Assay (tritiated thymidine incorporation). Format: cell-based. Particulars: Homo sapiens, MCF7; 48 hours with drug, then tritiated thymidine 4 hours; read-out: ED50 (MCF-7 proliferation). On the procedure: MCF-7 breast adenocarcinoma cells (ATCC HTB 22) were maintained in MEM (minimal essential medium, phenol red-free, Sigma, St. Louis, Mo.) supplimented with 10% fetal bovine serum (FBS) (V/V), L-glutamine (2 mM), sodium pyruvate (1 mM), HEPES {(N-[2-hydroxyethyl]piperazine-N'-[2-ethanesulfonic acid]10 mM}, non-essential amino acids and bovine insulin (1 μg/mL) (maintenance medium). Ten days prior to assay, MCF-7 cells were switched to maintenance medium supplemented with 10% dextran coated charcoal stripped fetal bovine serum (DCC-FBS) assay medium) in place of 10% FBS to deplete internal stores of steroids. MCF-7 cells were removed from maintenance flasks using cell dissociation medium (Ca^++ /Mg^++ free HBSS (phenol red-free) supplemented with 10 mM HEPES and 2 mM EDTA). Cells were washed twice with assay medium and adjusted to 80,000 cells/mL. Approximately […] (8,000 cells) were added to flat-bottom microculture wells (Costar 3596) and incubated at 37° C. in a 5% CO2 humidified incubator for 48 hours to allow for cell adherence and equilibration after transfer. Serial dilutions of drugs or DMSO as a diluent control were prepared in assay medium and […] to triplicate microcultures followed by […] assay medium for a final volume of […]. After an additional 48 hours at 37° C. in a 5% CO2 humidified incubator, microcultures were pulsed with tritiated thymidine (1 uCi/well) for 4 hours. Cultures were terminated by freezing at -70° C. for 24 hours followed by thawing and harvesting of microcultures using a Skatron Semiautomatic Cell Harvester. Samples were counted by liquid scintillation using a Wallace BetaPlace β counter. Results in Table 3 below show the ED50 (nM) for certain compounds of the instant invention: […]

[2] abbreviates: 0.1 mg/kg oral, 35 days, relative to ovariectomy.

On to `C#C[C@]1(O)CC[C@H]2[C@@H]3CCc4cc(O)ccc4[C@H]3CC[C@@]21C` [EE2, 17α-ethynyl estradiol, reference compound], for which, in the experiment on femur (setting [2]), the “Femur BMD % protection” value is listed as 76.3% and the “Femur. % Protection (x-ray image)” value is 99.1%. Further, the “prevention of bone loss, in words” value with femur (oral, OVX rats, femur density) was “prevents this loss”. The “Uterine Weight % Increase verses ovariectomized controls” value in the experiment with uterus (0.1 mg/kg PO) is given as 169.5%. In addition, the “uterine weight, in words” value in the experiment on uterus (oral, compared to ovariectomized animals) was “uterine weight was substantially greater than the uterine weight of ovariectomized test animals”. The “Serum Cholest. % Decrease verses ovariectomized controls” value in the experiment on serum cholesterol (0.1 mg/kg PO) was determined as 90.5%. Moreover, the “serum cholesterol, in words” value in the experiment with serum cholesterol (oral, compared to ovariectomized control animals) is “caused a decrease in serum cholesterol when orally administered at 0.1 mg/kg/day”. The “Uterine Eosinophil peroxidase, Vmax” value in the experiment with Eosinophil peroxidase (0.1 mg/kg PO) is 144.0. Besides, the “eosinophil infiltration into the uterus, in words” value in the experiment with Eosinophil peroxidase (stromal layer of ovariectomized rats) is “substantial, expected increase in eosinophil infiltration”.
With `COc1ccc2c(c1)-c1sc3cc(OC)ccc3c1C2c1ccc(OCCN2CCCCC2)cc1` (stereo not drawn) [Example 1A, 10-[4-[2-(1-Piperidinyl)ethoxy]phenyl]-3,7-dimethoxybenzo[b]indeno[2,1-d]thiophene], the IC50 in experiment [1] turned out to be 200 nM. For the same compound, the “Uterine Weight % Increase verses ovariectomized controls” value in the experiment with uterus (0.1 mg/kg PO) came out at 19.2%; with uterus (1 mg/kg PO) it was 21.6%; in the experiment on uterus (10 mg/kg PO), 26.8%. In addition, the “Serum Cholest. % Decrease verses ovariectomized controls” value in the experiment with serum cholesterol (0.1 mg/kg PO) stood at 59.1%; in the experiment with serum cholesterol (1 mg/kg PO) it was 47.7%; in the experiment on serum cholesterol (10 mg/kg PO) it was 68.7%. Further, the “Uterine Eosinophil peroxidase, Vmax” value with Eosinophil peroxidase (0.1 mg/kg PO) is recorded as 7.2; in the experiment with Eosinophil peroxidase (1 mg/kg PO), 30.3; in the experiment with Eosinophil peroxidase (10 mg/kg PO), 21.9.
For the compound `c1ccc2c(c1)-c1sc3ccccc3c1C2c1ccc(OCCN2CCCCC2)cc1` (stereo not drawn) [Example 1B, 10-[4-[2-(1-Piperidinyl)ethoxy]phenyl]benzo[b] indeno[2,1-d]thiophene], in experiment [1], the IC50 was 100 nM. The figures for the “Uterine Weight % Increase verses ovariectomized controls” value in the experiment on uterus (0.1 mg/kg PO), in the experiment on uterus (1 mg/kg PO) and with uterus (10 mg/kg PO) were 21%, 31.8% and 27.7%, respectively. Moreover, the results for the “Serum Cholest. % Decrease verses ovariectomized controls” value with serum cholesterol (0.1 mg/kg PO), in the experiment with serum cholesterol (1 mg/kg PO) and in the experiment with serum cholesterol (10 mg/kg PO) were 56.8%, 71.0% and 75.3%, respectively. Also, the “Uterine Eosinophil peroxidase, Vmax” value with Eosinophil peroxidase (0.1 mg/kg PO) was determined as 4.8; with Eosinophil peroxidase (1 mg/kg PO) it was 34.2; with Eosinophil peroxidase (10 mg/kg PO) it was 50.4.
As for `Oc1ccc2c(c1)-c1sc3cc(O)ccc3c1C2c1ccc(OCCN2CCCCC2)cc1` (stereo not drawn) [Example 2, 10-[4-[2-(1-Piperidinyl)ethoxy]phenyl]-3,7-dihydroxy benzo[b]indeno[2,1-d]thiophene], in experiment [1], the IC50 was 0.1 nM. For the same compound, the “Uterine Weight % Increase verses ovariectomized controls” value with uterus (0.1 mg/kg PO) turned out to be 14.6%; in the experiment with uterus (1 mg/kg PO), 25.6%; in the experiment with uterus (10 mg/kg PO), 18.3%. The entries for the “Serum Cholest. % Decrease verses ovariectomized controls” value with serum cholesterol (0.1 mg/kg PO), in the experiment on serum cholesterol (1 mg/kg PO) and with serum cholesterol (10 mg/kg PO) were 41.4%, 52.5% and 66.3%, respectively. For the same compound, the figures for the “Uterine Eosinophil peroxidase, Vmax” value in the experiment on Eosinophil peroxidase (0.1 mg/kg PO), in the experiment on Eosinophil peroxidase (1 mg/kg PO) and in the experiment on Eosinophil peroxidase (10 mg/kg PO) were 4.8, 24.0 and 23.4, respectively.
In the case of `COc1ccc2c(c1)C(O)(c1ccc(OCCN3CCCCC3)cc1)c1c-2sc2cc(OC)ccc12` (stereo not drawn) [Example 3B, 10-[4-[2-(1-Piperidinyl)ethoxy]phenyl]-2,7-dimethoxy benzo[b]indeno[2,1-d]thiophen-10-ol], the figures for the “Uterine Weight % Increase verses ovariectomized controls” value with uterus (0.1 mg/kg PO), in the experiment on uterus (1 mg/kg PO) and in the experiment with uterus (10 mg/kg PO) were 50.4%, 43.0% and 28.2%, respectively. The “Serum Cholest. % Decrease verses ovariectomized controls” value with serum cholesterol (0.1 mg/kg PO) is recorded as 43.5%; with serum cholesterol (1 mg/kg PO) it was 62.5%; with serum cholesterol (10 mg/kg PO), 69.2%. Also, the “Uterine Eosinophil peroxidase, Vmax” value in the experiment with Eosinophil peroxidase (0.1 mg/kg PO) is on record as 36.0; in the experiment on Eosinophil peroxidase (1 mg/kg PO) it was 36.6; in the experiment on Eosinophil peroxidase (10 mg/kg PO) it was 19.2.
`COc1ccc2c3c(sc2c1)-c1ccccc1C3c1ccc(OCCN2CCCCC2)cc1` (stereo not drawn) [Example 5A, 10-[4-[2-(1-Piperidinyl)ethoxy]phenyl]-7-methoxy benzo[b]indeno[2,1-d]thiophene]: the “Uterine Weight % Increase verses ovariectomized controls” value in the experiment on uterus (0.1 mg/kg PO) is given as 33.8%; in the experiment on uterus (1 mg/kg PO), 63.5%; with uterus (10 mg/kg PO), 92.9%. Moreover, the “Serum Cholest. % Decrease verses ovariectomized controls” value in the experiment with serum cholesterol (0.1 mg/kg PO) was found to be 59.1%; with serum cholesterol (1 mg/kg PO), 74.4%; in the experiment on serum cholesterol (10 mg/kg PO), 60.3%. For the same compound, the “Uterine Eosinophil peroxidase, Vmax” value came to 6.4 with Eosinophil peroxidase (0.1 mg/kg PO), 35.4 in the experiment on Eosinophil peroxidase (1 mg/kg PO) and 31.8 in the experiment with Eosinophil peroxidase (10 mg/kg PO).
